Measurements from paper PMC5472302, “Dicumarol inhibits PDK1 and targets multiple malignant behaviors of ovarian cancer cells” (PLoS ONE, 2017).

Target: Pyruvate dehydrogenase kinase 1 (PDK1) (Homo sapiens, UniProt Q15118)
Assay: ELISA-based in-well kinase assay: active PDK1 (Abcam) phosphorylating captured PDHA1 at Ser232
Format: biochemical

Sequence of Pyruvate dehydrogenase kinase 1 (PDK1) (Q15118 29-436): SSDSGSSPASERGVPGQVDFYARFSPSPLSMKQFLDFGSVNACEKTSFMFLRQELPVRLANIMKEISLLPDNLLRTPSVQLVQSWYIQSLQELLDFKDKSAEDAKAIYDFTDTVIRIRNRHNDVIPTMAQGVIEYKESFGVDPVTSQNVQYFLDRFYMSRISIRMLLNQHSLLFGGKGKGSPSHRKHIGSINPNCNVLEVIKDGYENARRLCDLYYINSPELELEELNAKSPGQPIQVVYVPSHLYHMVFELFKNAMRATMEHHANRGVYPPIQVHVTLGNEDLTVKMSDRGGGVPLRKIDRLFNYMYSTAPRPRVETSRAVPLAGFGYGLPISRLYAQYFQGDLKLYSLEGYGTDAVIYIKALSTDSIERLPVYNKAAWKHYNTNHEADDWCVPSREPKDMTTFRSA

`O=c1oc2ccccc2c(O)c1Cc1c(O)c2ccccc2oc1=O` [DIC, dicumarol] showed an IC50 of 19.42 ± 0.032 µM.
